Experimental data reported in patent US3992535A, “4-Hydroxy-2H-naphtho[2,1-e]-1,2-thiazine-3-carboxamide-1,1-dioxides and salts thereof” (priority 1974, dated 1976).
pIC50: −log10 of the molar value. Structures can show the parent of a compound that is named as a salt. Where two headings read alike, the source gives them in different places.

Legend:
[1] = system: kaolin- and carrageenin-induced edemas; assay: Kaolin and carrageenin edema combined: average ED35 and therapeutic ratio LD50/ED35; type: in vivo; details: for ED35: Rattus norvegicus, read-out: Average value ED35; for Therapeutic ratio: ratio of toxic and anti-exsudative activity LD50 / ED35: oral LD50 / average ED35, rat
Protocol: (§1) The kaolin edema was induced according to the method of Hillebrecht [Arzneimittel-Forsch. 4, 607 (1954] by subplantar injection of 0.05 ml of a 10% suspension of kaolin in an aqueous 0.85% sodium chloride solution. Measurement of the thickness of the paws was effected using the technique of Doepfner and Cerletti [Int. Arch. Allergy Immunol. 12, 89 (1958)]. The test compound was administered perorally by means of an esophageal tube to male FW 49-rats having an average body weight of 120 to 150 gm 30 minutes before inducing the edema. 5 hours after the provocation of the edema, the average size of the swelling in the rats treated with the test compound was compared with the average size of the swelling in the control animals treated by a dummy procedure. By graphical extrapolation, the dose leading to a 35% reduction of the swelling (ED35) was calculated from the percentage reduction in the size of the swelling caused by the administration of different doses.
(§2) The provocation of the carrageenin edema was effected according to the method of Winter et al [Proc. Soc. exp. Biol. Med. 111, 544 (1962)] by subplantar injection of 0.05 ml of a 1% solution of carrageenin in an aqueous 0.85% solution of sodium chloride. The test compound was administered 60 minutes before the provocation of the edema.
(§3) For the calculation of the reductive effect on the edema, the size of the swelling was measured 3 hours after the provocation of the edema. All the other details were the same as described above in the case of the kaolin edema.
The therapeutic index (a measure of the therapeutic usefulness) was calculated as the quotient of the oral LD50 value and the ED35 value derived from the tests to determine the antiexsudative activity against kaolin- and carrageenininduced edemas.

[2] = system: kaolin-induced edema of the hind paw of the rat; assay: Kaolin edema of the hind paw of the rat; type: in vivo; details: per os, 30 minutes before edema, 35% reduction of swelling at 5 hours
Protocol: (§4) Compound A and known compound B were tested to determine their actue antiexsudative effect on the kaolin-induced edema and the carrageenin-induced edema of the hind paw of the rat and their acute toxicity after oral administration in rats.
a. Kaolin edema of the hind paw of the rat:
as §1

[3] = system: carrageenin-induced edema of the hind paw of the rat; assay: Carrageenin edema of the back paw of the rat; type: in vivo; details: per os, 60 minutes before edema, swelling at 3 hours
Protocol: as §4
b. Carrageenin edema of the back paw of the rat:
as §2, §3

[4] = Acute toxicity in the rat, oral; type: in vivo; details: in vivo, po, per os, male and female FW 49-rats, within 14 days
Protocol: (§5) The test compound was administered in the form of a trituration in tylose.
(§6) The calculation of the LD50 values was effected, to the extent possible, according to the method of Litchfield and Wilcoxon, based on the percentage of animals which died within 14 days after administration of the different doses.

[5] = system: adjuvant arthritis in the rat; assay: Adjuvant arthritis in the rat; type: in vivo; details: for ED50: po, 504 h, per os, once a day for 20 days, paw volume on 21st day, read-out: Adjuvant arthritis in the rat ED50 per os (average value of primary and secondary reaction); for activity against adjuvant arthritis compared with phenylbutazone (D) (in words): vs phenylbutazone (D)
Protocol: d. Adjuvant arthritis in the rat: The adjuvant arthritis tests in rats were carried out according to the method of Rosenthale and Nagra [Proc. Soc. exp. Biol. 125, 149 (1967)]. […] The test compound was administered once a day, starting with the day of the M. butyricum-injection, for a period of 20 days by means of an esophageal tube. […] An ED50 was determined graphically from the reduction of the swelling caused by the administration of different doses.

[6] = system: platelet stickiness in human citrate blood; assay: Morris test (platelet stickiness, retention on glass beads); type: cell-based; details: for inhibition at 100 µM: Platelet, 10 min, 10^-^4 mol/liter, human citrate blood, read-out: Morris test (percentage reduction in the stickiness)
Protocol: The principle of the Morris test is described in "Stoffwechsel- and Membranpermeabilitat von Erythrozyten und Thrombozyten, I. Int.
1 ml of human citrate blood was pipetted into each of a number of small test tubes, the test compound was added in the desired concentrations, and the tubes were incubated at 37° C for 10 minutes. 2 gm each of glass beads (about 100 mesh) were added to half of the tubes. The tubes, stoppered by means of a plastic plug, were attached to a vertical wheel and rotated for 45 seconds end-over-end. The same tubes were then left to stand at ambient temperature for a further hour, after which time a sedimentation of erythrocytes and glass beads had taken place. 0.01 ml of the supernatant plasma was removed and diluted with 1:800 celloscope solution. The platelet count was read in a celloscope. The percentage of the thrombocytes retained in the sediment (adhering to the glass beads or aggregating) was calculated from the difference of the thrombocyte counts with and without glass contact.
The results were expressed in terms of the percentage reduction in the stickiness compared with the control (without addition of test compound).

[7] = system: thrombocyte aggregation in the platelet-rich plasma of healthy human donors; assay: Born test; collagen aggregation; type: cell-based; details: for inhibition at 0.1 µM: 10^-^7 mol/liter; for 50% diminution of aggregation: times lower concentration than compound N: vs compound N (acetylsalicylic acid)
Protocol: b. […] The rate of decline of the optical density of platelet suspensions was measured and recorded photometrically after the addition of commercial collagen. From the angle of inclination of the density curve, the rate of aggregation was estimated. The optical density was taken at the point on the curve where most light was transmitted. The amount of collagen was chosen such that an irreversible control curve was obtained. The results were expressed in terms of the optical density and represent the percentage change in light transmission (= % diminution of the aggregation) caused by the test compound compared with the untreated control.

[8] = system: rat; assay: Acute toxicity in the rat, oral; type: in vivo; details: per os, vs compound E
Protocol: as §5, §6

[9] = Homo sapiens, 10^-^4 mol/liter, read-out: Born test (% diminution of the aggregation)
[10] = Homo sapiens, 10^-^5 mol/liter, read-out: Born test (% diminution of the aggregation)
[11] = Homo sapiens, 10^-^6 mol/liter, read-out: Born test (% diminution of the aggregation)
[12] = Homo sapiens, read-out: Born test (% diminution of the aggregation)

SMILES	inhibition at 100 µM [7, 9] [%]	inhibition at 10 µM [7, 10] [%]	inhibition at 1 µM [7, 11] [%]	inhibition at 0.1 µM [7, 12] [%]	50% diminution of aggregation: times lower concentration than compound N [7]	further results
COc1ccc2c(c1)c(CC(=O)O)c(C)n2C(=O)c1ccc(Cl)cc1 [B, indomethacin, reference compound]						ED35 [1]: 2.8 mg/kg; Therapeutic ratio: ratio of toxic and anti-exsudative activity LD50 / ED35 [1]: 9.2; ED35 [2]: 2.7 mg/kg; ED35 [3]: 2.9 mg/kg; LD50 at 336 h [4]: 25.7 mg/kg
CN1C(C(=O)Nc2ccccn2)=C(O)c2ccc3ccccc3c2S1(=O)=O [C, 4-Hydroxy-2-methyl-N-(2-pyridyl)-2H-naphtho[2,1-e]-1,2-thiazine-3-carboxamide-1,1-dioxide]						activity against adjuvant arthritis (in words) [5]: surprisingly strong activity; ED50 [5]: ~4 mg/kg; activity against adjuvant arthritis compared with phenylbutazone (D) (in words) [5]: far superior
CN1C(C(=O)Nc2nccs2)=C(O)c2ccc3ccccc3c2S1(=O)=O [Compound A, 4-Hydroxy-2-methyl-N-(2-thiazolyl)-2H-naphtho[2,1-e]-1,2-thiazine-3-carboxamide-1,1-dioxide]	96	95	92	65		ED35 [1]: 12.2 mg/kg; Therapeutic ratio: ratio of toxic and anti-exsudative activity LD50 / ED35 [1]: 16.9; therapeutic ratio relative to known compound B ([1]; vs compound B (indomethacin)): twice as great; inhibition at 100 µM [6]: 43%; ED35 [2]: 13.5 mg/kg; activity against adjuvant arthritis (in words) [5]: surprisingly strong activity; ED50 [5]: < 2 mg/kg; activity against adjuvant arthritis compared with phenylbutazone (D) (in words) [5]: far superior; ED35 [3]: 11 mg/kg; 50% diminution of the aggregation: times lower concentration than compound E ([7]; vs compound E (sudoxicam)): at least 10 times lower; inhibiting effect on the thrombocyte aggregation compared with compound E (in words) ([7]; vs compound E (sudoxicam)): significantly stonger; LD50 at 336 h [4]: 207 mg/kg; toxicity compared with compound E (in words) [8]: less toxic
CCCCC1C(=O)N(c2ccccc2)N(c2ccccc2)C1=O [D, phenylbutazone, reference compound]						ED50 [5]: ~40 mg/kg
CN1C(C(=O)Nc2nccs2)=C(O)c2ccccc2S1(=O)=O [E, 4-hydroxy-2-methyl-N-(2-thiazolyl)-2H-1,2-benzothiazine-3-carboxamide-1,1-dioxide, reference compound]						inhibition at 100 µM [6]: 3%; inhibition of the stickiness in the Morris test in comparison with compound A (in words) ([6]; vs compound A): practically ineffective; inhibition at 1 µM [7, 12]: 33%; inhibition at 10 µM [7, 12]: 91%; inhibition at 100 µM [7, 12]: 92%; LD50 at 336 h [4]: 136 mg/kg
CN1C(C(=O)Nc2cccc(Cl)c2)=C(O)c2ccc3ccccc3c2S1(=O)=O [F, N-(3-Chloro-phenyl)-4-hydroxy-2-methyl-2H-naphtho[2,1-e]-1,2-thiazine-3-carboxamide-1,1-dioxide]	96	81	35		at least 20 times lower	
Cc1cccc(NC(=O)C2=C(O)c3ccc4ccccc4c3S(=O)(=O)N2C)c1 [G, 4-Hydroxy-2-methyl-N-(3-tolyl)-2H-naphtho[2,1-e]-1,2-thiazine-3-carboxamide-1,1-dioxide]	97	78	65		at least 20 times lower	
Cc1ccnc(NC(=O)C2=C(O)c3ccc4ccccc4c3S(=O)(=O)N2C)c1 [H, Sodium salt of 4-hydroxy-2-methyl-N-(4-methyl-2-pyridyl)-2H-naphtho[2,1-e]-1,2-thiazine-3-carboxamide-1,1-dioxide]	95	91	82		at least 100 times lower	
CN1C(C(=O)Nc2cncc(Cl)n2)=C(O)c2ccc3ccccc3c2S1(=O)=O [I, N-(6-Chloro-2-pyrazinyl)-4-hydroxy-2-methyl-2H-naphtho[2,1-e]-1,2-thiazine-3-carboxamide-1,1-dioxide]		91	91	22	at least 100 times lower	
Cc1csc(NC(=O)C2=C(O)c3ccc4ccccc4c3S(=O)(=O)N2C)n1 [J, 4-Hydroxy-2-methyl-N-(4-methyl-2-thiazolyl)-2H-naphtho[2,1-e]-1,2-thiazine-3-carboxamide-1,1-dioxide]	92	89	88	4	at least 100 times lower	
Cc1cnc(NC(=O)C2=C(O)c3ccc4ccccc4c3S(=O)(=O)N2C)s1 [K, 4-Hydroxy-2-methyl-N-(5-methyl-2-thiazolyl)-2H-naphtho[2,1-e]-1,2-thiazine-3-carboxamide-1,1-dioxide]	89	97	66		at least 20 times lower	
Cc1nc(NC(=O)C2=C(O)c3ccc4ccccc4c3S(=O)(=O)N2C)sc1C [L, N-(4,5-Dimethyl-2-thiazolyl)-4-hydroxy-2-methyl-2H-naphtho[2,1-e]-1,2-thiazine-3-carboxamide-1,1-dioxide]	91	95	88	15	at least 100 times lower	
CCc1nc(NC(=O)C2=C(O)c3ccc4ccccc4c3S(=O)(=O)N2C)sc1C [M, N-(4-Ethyl-5-methyl-2-thiazolyl)-4-hydroxy-2-methyl-2H-naphtho[2,1-e]-1,2-thiazine-3-carboxamide-1,1-dioxide]	94	91	79	24	at least 100 times lower	
CC(=O)Oc1ccccc1C(=O)O [N, acetylsalicylic acid, reference compound]						inhibition at 10 µM [7, 12]: 13%; inhibition at 30 µM [7, 12]: 45%; pIC50 ([7]; Homo sapiens, read-out: concentration causing a 50% diminution of aggregation): ~4.40
